# Earlier results as cited in patent US20220154222A1, “NOVEL NUCLEIC ACID MODIFIERS” (THE BROAD INSTITUTE, INC., priority 2019, published 2022).
# Tested on: Factor VII gene silencing in hepatocytes
# Details: LNP siRNA systems containing the ionizable cationic lipid; hepatocytes in vivo
row,Compound,"gene silencing potency, rank order of the series"
1,"1,2-dilinoleyloxy-keto-N,N-dimethyl-3-aminopropane [DLinKDMA]",DLinKC2-DMA>DLinKDMA>DLinDMA>>DLinDAP
2,"CCCCC/C=C\C/C=C\CCCCCCCCOCC(CN(C)C)OCCCCCCCC/C=C\C/C=C\CCCCC (stereo not shown) [DLinDMA, 1,2-dilinoleyloxy-3-N,N-dimethylaminopropane]",DLinKC2-DMA>DLinKDMA>DLinDMA>>DLinDAP
3,"CCCCC/C=C\C/C=C\CCCCCCCCC1(CCCCCCCC/C=C\C/C=C\CCCCC)OCC(CCN(C)C)O1 (stereo not shown) [DLinKC2-DMA, 1,2-dilinoleyl-4-(2-dimethylaminoethyl)-[1,3]-dioxolane]",DLinKC2-DMA>DLinKDMA>DLinDMA>>DLinDAP
4,"CCCCC/C=C\C/C=C\CCCCCCCC(=O)OCC(CN(C)C)OC(=O)CCCCCCC/C=C\C/C=C\CCCCC (stereo not shown) [DLinDAP, 1,2-dilineoyl-3-dimethylammonium-propane]",DLinKC2-DMA>DLinKDMA>DLinDMA>>DLinDAP
